Experimental findings from ChEMBL document CHEMBL1201862, “PubChem BioAssay data set” (2004) are described below.

In assay [1] the test system is HEK293. The experiment in a line: optical interference in Abeta FP readout, dose response, artefact control for IDE activator project, biochemical, fluorescence polarization (AID 588442). Format: functional, cell-based. Particulars: Homo sapiens. In general terms: Polarisation of emitted light reports the rotation of a fluorescent probe.
The subject of assay [2] is HEK293. The experiment in a line: HEK cell cytotoxicity by LDH release, dose response, cytotoxicity control for IDE activator project, fluorescence, HEK cells (AID 588440).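 Further: cytotoxicity by LDH release measuring loss of membrane integrity.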 Format: functional, cell-based. Particulars: Homo sapiens. A general note: LDH leaks from cells whose membrane has failed.
The target of assay [3] is T1, Insulin-degrading enzyme (Homo sapiens, UniProt P14735).
T1 sequence (P14735 whole entry): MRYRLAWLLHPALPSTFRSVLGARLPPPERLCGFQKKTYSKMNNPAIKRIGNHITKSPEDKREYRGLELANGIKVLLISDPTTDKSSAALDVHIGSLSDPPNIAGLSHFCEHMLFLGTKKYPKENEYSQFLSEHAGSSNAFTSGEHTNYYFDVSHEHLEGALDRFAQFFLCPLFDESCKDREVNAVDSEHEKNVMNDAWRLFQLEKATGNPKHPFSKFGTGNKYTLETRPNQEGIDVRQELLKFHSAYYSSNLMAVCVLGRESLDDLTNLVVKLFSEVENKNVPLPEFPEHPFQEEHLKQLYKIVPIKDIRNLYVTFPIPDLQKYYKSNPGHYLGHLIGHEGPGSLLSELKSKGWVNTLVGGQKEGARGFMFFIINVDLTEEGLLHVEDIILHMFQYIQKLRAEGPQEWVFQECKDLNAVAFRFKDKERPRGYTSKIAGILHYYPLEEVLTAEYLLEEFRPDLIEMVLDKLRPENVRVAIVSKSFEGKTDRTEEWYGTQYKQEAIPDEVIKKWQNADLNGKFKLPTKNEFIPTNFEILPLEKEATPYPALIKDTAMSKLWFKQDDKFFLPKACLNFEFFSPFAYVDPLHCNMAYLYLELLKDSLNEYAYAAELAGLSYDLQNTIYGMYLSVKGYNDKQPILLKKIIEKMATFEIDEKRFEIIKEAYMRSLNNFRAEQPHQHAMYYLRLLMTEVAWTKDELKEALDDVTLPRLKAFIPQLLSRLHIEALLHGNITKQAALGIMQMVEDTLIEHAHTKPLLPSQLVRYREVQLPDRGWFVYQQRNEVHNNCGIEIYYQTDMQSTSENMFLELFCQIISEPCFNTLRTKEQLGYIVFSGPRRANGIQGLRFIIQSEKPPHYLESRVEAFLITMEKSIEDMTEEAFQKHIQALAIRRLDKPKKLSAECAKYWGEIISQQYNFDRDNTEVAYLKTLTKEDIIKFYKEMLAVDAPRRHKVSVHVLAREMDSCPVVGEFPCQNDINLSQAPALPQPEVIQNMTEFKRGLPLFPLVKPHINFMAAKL
The experiment in a line: activators of recombinant IDE enzyme, dose response, counter-screen for IDE activator project, biochemical, fluorescence polarization (AID 588681). Background: A counterscreen serves to expose hits that act by an unwanted route or on another target.

Assay [4] addresses T1, Insulin-degrading enzyme. The experiment in a line: activators of endogenous IDE in HEK cells, dose response, cell-based, fluorescence polarization (AID 588439). Format: functional.
Assay [5] is described as follows: Luminescence Cell-Based Dose Response HTS to Identify Inhibitors of 5'UTR Stem-Loop Driven Prion Protein mRNA Translation in H4 Neuroglioblastoma Cells. [Related pubchem assays: 1827 (Project Summary), 1813 (Primary HTS)]. Format: functional.
Assay [6] has as its target T2, Type-1 angiotensin II receptor (Homo sapiens, UniProt P30556).
T2 sequence (P30556 whole entry): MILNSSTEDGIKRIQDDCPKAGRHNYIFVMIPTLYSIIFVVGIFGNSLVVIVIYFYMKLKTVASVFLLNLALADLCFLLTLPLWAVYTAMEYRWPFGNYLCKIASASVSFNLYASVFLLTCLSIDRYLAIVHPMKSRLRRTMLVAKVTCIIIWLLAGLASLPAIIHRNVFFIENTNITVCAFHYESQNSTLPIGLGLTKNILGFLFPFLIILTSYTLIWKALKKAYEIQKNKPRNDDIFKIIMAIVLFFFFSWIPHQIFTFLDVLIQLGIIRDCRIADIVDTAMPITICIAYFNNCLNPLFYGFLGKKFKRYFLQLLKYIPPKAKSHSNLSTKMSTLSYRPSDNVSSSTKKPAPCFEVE
The experiment in a line: AT1 receptor antagonists, dose response, selectivity assay for APJ receptor antagonist project, cell-based, uHTS hits (AID 463214).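 Further: antagonist potency against angiotensin II stimulated AT1 response.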 Format: functional.

The next assay addresses Beta-galactosidase (Escherichia coli, UniProt Q8VNN2). The experiment in a line: PubChem AID 485352. Format: functional.
Assay [7] deals with Streptococcus sp. 'group A'. The experiment in a line: growth inhibition of control SK(-) GAS strain, dose response, counter-screen for streptokinase expression inhibitor project, luminescence, kanamycin, BacTiterGlo, confirmation (AID 1900). Format: functional, organism-based.
Assay [8] is described as follows: Shn3 3'UTR reporter inhibitors, dose response, cell-based, Clone20 osteoblasts, firefly luciferase, cherry-picked (AID 624132).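 Further: firefly luciferase luminescence from reporter carrying the Shn3 3'UTR in osteoblasts.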 Format: functional.
Assay [9] is described as follows: inhibitors of SNCA 5'UTR-driven reporter translation, confirmation, H4 neuroglioma cells, luminescence (AID 1988). Format: functional, cell-based.
The next assay deals with T3, Streptokinase A (Streptococcus pyogenes serotype M1, UniProt P10520).
T3 sequence (P10520 whole entry): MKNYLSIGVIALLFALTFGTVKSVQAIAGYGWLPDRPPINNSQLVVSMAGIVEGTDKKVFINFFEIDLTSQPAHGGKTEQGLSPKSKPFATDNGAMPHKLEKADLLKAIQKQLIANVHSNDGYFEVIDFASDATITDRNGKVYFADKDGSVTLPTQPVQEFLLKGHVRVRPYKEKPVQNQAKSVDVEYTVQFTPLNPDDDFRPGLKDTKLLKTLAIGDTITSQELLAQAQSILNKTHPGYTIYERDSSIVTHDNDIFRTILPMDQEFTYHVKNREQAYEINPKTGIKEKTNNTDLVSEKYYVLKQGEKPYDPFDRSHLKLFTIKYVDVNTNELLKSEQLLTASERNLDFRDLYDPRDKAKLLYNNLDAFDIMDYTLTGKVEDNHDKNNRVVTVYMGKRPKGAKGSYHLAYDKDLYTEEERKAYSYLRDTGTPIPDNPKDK
The experiment in a line: S. pyogenes streptokinase expression inhibitors, potency, dose response, plasminogen activation absorbance, OD405 (AID 1914).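 Further: secreted streptokinase activity via plasminogen activation per viability signal from cell pellet.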 Format: functional, Streptococcus pyogenes M1 GAS.

The test system of another assay is Streptococcus. The experiment in a line: Group A Streptococcus viability loss, dose response, counter-screen for streptokinase expression inhibitor project, luminescence, BacTiterGlo (AID 1915).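 Further: potency for reduction of bacterial viability or growth.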 Format: functional, organism-based.
A short description of assay [10]: HepG2 cell cytotoxicity, dose response, cytotoxicity control for Shn3 inhibitor project, CellTiter-Glo, cherry-picked (AID 624134). Format: functional, cell-based.
The nature of assay [11]: control 3'UTR Renilla luciferase suppression, dose response, counter-screen for Shn3 inhibitor project, cell-based, Clone20-Shn3RL, cherry-picked (AID 624133). Format: functional.
The nature of assay [12]: inhibitors of firefly luciferase expression or activity, dose response, H4 neuroglioma cells, luminescence (AID 1990). Format: functional, cell-based.
The target in assay [13] is Ras and Rab interactor 1/Tyrosine-protein kinase ABL1 (Homo sapiens, UniProt P00519+Q13671). Format: functional.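 Further: biochemical TR-FRET dose-response test measuring inhibition of binding between Rin1 and Abl proteins.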
Assay [14] can be described thus: LGR2 antagonists, dose response, cell-based, HEK293, CRE-luciferase reporter, cherry pick, set 2 (AID 743343).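 Further: transfected cells were stimulated with diluted bursicon conditioned medium after compound addition.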 Format: functional.
The nature of assay [15]: MC4R antagonists, dose response, counter-screen for LGR2 antagonist project, cell-based, plate reader, cherry pick (AID 743444).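 Further: transfected HEK 293 cells stimulated with alpha-MSH peptide; potency of inhibitors of the alpha-MSH evoked signal.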 Format: functional.
The nature of assay [16]: nonselective inhibitors of cellular cAMP signaling, dose response, counter-screen for MC4R biased antagonist project, cell-based, TR-FRET cAMP detection (AID 602305).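 Further: U2OS cells stimulated with forskolin near its EC80 as the cAMP inducer; potency is for inhibition of forskolin-stimulated cAMP signaling.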 Format: functional.
Assay [17] can be described thus: HEK293 cell cytotoxicity, dose response, cytotoxicity control, plate reader, cherry-picked samples (AID 743446). Format: functional, cell-based.
The nature of assay [18]: HepG2 cell cytotoxicity, dose response, cytotoxicity control, plate reader, cherry-pick, antagonist series (AID 743416). Format: functional, cell-based.
Another assay deals with Melanocortin receptor 4 (Homo sapiens, UniProt P32245). The experiment in a line: MC4R antagonist potency on cAMP, dose response, cell-based, TR-FRET, biased antagonists (AID 602298).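 Further: antagonist potency against agonist-stimulated cAMP production.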 Format: functional.
Assay [19] in a line: A549 cell cytotoxicity, dose response, cytotoxicity control, plate reader, cherry-pick, antagonist series (AID 743412). Format: functional, cell-based.
Assay [20] concerns the target T4, Calpain-2 catalytic subunit (Sus scrofa, UniProt P43367).
T4 sequence (P43367 whole entry): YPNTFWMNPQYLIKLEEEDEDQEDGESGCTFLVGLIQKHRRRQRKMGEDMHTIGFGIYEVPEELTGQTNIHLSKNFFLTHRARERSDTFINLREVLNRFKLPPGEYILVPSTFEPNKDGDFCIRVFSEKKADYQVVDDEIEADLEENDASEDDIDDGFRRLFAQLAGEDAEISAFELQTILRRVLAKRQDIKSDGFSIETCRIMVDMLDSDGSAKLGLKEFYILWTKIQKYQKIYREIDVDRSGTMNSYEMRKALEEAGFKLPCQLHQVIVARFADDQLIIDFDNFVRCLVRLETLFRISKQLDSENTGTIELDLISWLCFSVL
The experiment in a line: pig calpain II inhibitor potency, dose response, biochemical, fluorogenic peptide substrate (AID 1420). Format: functional.

Assay [21] concerns the target T5, Heat shock factor protein 1 (Mus musculus, UniProt P38532).
T5 sequence (P38532 whole entry): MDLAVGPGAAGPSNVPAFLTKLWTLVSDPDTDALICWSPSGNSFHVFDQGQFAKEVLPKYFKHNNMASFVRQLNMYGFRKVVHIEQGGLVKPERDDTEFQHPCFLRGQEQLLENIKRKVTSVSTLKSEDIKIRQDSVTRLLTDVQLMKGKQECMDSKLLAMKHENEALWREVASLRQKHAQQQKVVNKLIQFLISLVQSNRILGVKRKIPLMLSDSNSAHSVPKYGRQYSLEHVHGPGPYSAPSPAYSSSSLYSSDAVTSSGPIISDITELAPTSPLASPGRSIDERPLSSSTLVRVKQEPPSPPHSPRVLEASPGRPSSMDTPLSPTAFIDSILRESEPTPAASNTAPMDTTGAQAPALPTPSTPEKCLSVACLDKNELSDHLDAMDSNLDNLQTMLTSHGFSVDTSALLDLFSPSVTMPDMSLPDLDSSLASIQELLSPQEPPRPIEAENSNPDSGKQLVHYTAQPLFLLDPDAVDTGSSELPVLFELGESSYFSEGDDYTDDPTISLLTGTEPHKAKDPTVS
The experiment in a line: HSF1 potentiators in luciferase reporter cells, confirmation, cell-based, NIH3T3, luminescence, dose retest (AID 435004).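 Further: stress induced by proteasome inhibitor MG132 added 30 min after compound; luciferase reporter driven by HSF1 response element in NIH3T3 cells; actives raise luminescence as potentiators of the MG132 stress response.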 Format: functional.

The target in assay [22] is Mitochondrial peptide methionine sulfoxide reductase (Bos taurus, UniProt P54149). Format: functional.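 Further: absorbance read-out, biochemical high-throughput dose-response screen for MsrA inhibitors, confirmatory; recombinant bovine MsrA coupled to E. coli TrxB with NADPH and selenocystamine; potency is for inhibitors of MsrA activity on DMSO substrate.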

SMILES strings stand for the structures. Calls of active or inactive are those of the source.

Chain of Mitochondrial peptide methionine sulfoxide reductase (P54149 whole entry): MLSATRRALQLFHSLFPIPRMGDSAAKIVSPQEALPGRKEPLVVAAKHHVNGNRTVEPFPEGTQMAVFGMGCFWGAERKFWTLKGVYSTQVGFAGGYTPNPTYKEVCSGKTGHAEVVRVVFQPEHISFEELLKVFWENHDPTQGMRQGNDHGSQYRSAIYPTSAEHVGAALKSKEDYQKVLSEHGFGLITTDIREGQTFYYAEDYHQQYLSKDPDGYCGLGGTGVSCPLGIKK
Chain of Beta-galactosidase (Q8VNN2 whole entry): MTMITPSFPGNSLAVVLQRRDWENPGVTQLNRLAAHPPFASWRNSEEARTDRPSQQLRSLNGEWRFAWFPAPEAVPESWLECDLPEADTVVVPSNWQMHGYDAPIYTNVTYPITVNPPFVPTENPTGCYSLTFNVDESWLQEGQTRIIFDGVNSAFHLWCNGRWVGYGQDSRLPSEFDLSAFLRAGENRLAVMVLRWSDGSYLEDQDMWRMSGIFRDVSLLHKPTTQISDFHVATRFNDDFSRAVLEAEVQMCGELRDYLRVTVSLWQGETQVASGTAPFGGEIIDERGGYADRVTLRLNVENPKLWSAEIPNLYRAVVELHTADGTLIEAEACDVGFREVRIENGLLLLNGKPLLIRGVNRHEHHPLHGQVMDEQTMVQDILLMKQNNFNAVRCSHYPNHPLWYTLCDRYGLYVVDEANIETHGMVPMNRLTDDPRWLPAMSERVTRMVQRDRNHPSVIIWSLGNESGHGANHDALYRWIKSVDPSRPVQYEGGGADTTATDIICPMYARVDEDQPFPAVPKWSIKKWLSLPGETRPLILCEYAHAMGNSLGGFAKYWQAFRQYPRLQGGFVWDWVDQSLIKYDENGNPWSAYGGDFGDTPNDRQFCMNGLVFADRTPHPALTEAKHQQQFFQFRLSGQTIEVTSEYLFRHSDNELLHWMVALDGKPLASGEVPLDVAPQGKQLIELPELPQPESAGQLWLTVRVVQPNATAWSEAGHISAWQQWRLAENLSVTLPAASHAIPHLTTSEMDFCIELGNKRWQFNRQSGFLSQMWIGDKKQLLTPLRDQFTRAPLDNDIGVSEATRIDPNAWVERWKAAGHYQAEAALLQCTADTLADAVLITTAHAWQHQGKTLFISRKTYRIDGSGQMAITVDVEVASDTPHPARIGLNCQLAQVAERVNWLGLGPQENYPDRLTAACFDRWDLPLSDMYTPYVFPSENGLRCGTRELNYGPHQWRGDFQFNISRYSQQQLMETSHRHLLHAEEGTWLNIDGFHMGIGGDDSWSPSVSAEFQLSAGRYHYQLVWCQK
Chain of Melanocortin receptor 4 (P32245 whole entry): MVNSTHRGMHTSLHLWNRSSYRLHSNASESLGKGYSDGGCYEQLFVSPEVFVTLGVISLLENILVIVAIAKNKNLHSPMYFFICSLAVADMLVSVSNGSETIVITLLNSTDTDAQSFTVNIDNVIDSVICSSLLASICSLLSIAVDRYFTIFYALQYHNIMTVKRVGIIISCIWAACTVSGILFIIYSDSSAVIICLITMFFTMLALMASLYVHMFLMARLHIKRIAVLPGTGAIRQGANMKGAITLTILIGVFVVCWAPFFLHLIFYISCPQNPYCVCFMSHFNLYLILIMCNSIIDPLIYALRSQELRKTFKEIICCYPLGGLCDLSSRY
Chain of Ras and Rab interactor 1/Tyrosine-protein kinase ABL1 (P00519 whole entry): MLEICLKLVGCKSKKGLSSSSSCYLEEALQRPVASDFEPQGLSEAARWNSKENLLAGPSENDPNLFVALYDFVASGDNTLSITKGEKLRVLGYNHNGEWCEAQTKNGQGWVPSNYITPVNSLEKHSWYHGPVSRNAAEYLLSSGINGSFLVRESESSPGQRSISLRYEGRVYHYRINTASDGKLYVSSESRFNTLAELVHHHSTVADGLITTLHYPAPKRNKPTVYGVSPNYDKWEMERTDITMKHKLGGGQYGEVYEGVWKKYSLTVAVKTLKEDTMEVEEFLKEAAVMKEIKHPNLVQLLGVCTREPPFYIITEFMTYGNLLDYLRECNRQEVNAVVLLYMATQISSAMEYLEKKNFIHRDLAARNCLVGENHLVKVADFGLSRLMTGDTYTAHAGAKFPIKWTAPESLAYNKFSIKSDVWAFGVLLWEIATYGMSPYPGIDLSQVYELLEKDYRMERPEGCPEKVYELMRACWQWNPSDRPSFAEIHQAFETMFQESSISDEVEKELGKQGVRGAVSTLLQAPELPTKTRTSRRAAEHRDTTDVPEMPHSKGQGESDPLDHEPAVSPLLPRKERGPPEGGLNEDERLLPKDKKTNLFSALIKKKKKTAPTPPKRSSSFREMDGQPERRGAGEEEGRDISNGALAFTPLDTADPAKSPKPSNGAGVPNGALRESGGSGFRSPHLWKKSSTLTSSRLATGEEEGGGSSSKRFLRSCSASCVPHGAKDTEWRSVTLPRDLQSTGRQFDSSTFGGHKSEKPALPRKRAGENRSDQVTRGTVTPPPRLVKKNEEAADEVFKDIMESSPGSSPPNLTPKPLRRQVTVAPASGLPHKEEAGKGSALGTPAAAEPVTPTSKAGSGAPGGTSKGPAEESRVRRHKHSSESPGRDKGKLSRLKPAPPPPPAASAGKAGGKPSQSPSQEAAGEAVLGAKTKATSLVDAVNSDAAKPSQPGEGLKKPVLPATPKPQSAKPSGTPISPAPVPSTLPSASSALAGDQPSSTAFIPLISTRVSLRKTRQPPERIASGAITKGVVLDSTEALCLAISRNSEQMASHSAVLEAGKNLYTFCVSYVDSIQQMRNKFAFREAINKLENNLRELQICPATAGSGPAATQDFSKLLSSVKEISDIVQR
Chain of Ras and Rab interactor 1/Tyrosine-protein kinase ABL1 (Q13671 whole entry): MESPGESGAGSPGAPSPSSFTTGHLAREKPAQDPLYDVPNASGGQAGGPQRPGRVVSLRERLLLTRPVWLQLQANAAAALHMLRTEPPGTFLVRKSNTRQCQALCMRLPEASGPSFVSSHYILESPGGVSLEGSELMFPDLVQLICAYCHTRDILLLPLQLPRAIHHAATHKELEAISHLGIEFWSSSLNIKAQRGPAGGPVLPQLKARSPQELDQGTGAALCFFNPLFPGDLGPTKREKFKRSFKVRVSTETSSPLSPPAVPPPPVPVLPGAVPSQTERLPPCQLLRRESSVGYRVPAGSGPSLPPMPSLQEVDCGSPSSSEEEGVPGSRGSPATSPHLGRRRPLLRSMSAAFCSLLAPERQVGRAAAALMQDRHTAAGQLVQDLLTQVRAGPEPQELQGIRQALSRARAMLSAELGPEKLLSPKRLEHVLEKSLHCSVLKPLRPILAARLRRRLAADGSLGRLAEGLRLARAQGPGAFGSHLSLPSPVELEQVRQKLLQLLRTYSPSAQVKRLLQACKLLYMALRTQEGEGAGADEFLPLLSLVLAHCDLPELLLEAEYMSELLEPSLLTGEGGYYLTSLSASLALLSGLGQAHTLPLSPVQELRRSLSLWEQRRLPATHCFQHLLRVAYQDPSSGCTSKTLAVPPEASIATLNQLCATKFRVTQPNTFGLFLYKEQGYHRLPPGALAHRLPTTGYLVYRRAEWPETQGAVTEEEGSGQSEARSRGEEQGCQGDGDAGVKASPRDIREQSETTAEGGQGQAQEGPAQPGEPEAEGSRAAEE

As usually defined, the EC50 is the concentration at which the effect is half-maximal. For orientation: IC50 means the point on the concentration scale where inhibition reaches its midpoint. With `O=C(Nc1cc(S(=O)(=O)N2CCOCC2)ccc1N1CCOCC1)c1ccccc1F`, the EC50 with HEK293 [1], on Insulin-degrading enzyme [3] and on Insulin-degrading enzyme [4] was > 54.7 µM (inactive) in each case. Also, the IC50 in the assay on HEK293 [2] is > 89.2 µM (inactive).
As a reminder, the AC50 is the midpoint of the concentration-response curve, whichever way the signal moves. Regarding `Cc1ccc(CS(=O)(=O)c2ncc(Cl)c(C(=O)Nc3ccc(OC(F)F)cc3)n2)cc1`, the EC50 in [5] was 12.7 µM (active); at Beta-galactosidase it was > 40 µM (inactive); in assay [7], 8.23 µM (active); in assay [9] it was 18.1 µM (active); at Streptokinase A, 2.07 µM (active); with Streptococcus it was 22.1 µM (active). Further, the EC50 in [12] was > 120 µM (not active). The IC50 in assay [6] was 11.3 µM (active). For the same compound, the results for the AC50 in assay [8], in assay [10] and in assay [11] were 2.34 µM (active), 61.5 µM (active) and 13.5 µM (active), respectively.
In the case of `Oc1cc(SCc2ccccc2)ncn1`, the IC50 in assay [13] was 0.514 µM (active).
As to `Cc1ccccc1CN1Cc2cnnn2-c2ccccc2C1C#N` (configuration not stated), the AC50 in assay [14] is 13.8 µM (active); in assay [15], 8.97 µM (active); in assay [17], 15.8 µM (active); in assay [18] it was 17 µM (active); in assay [19], 20.9 µM (active). Moreover, the IC50 in [16] was > 64.5 µM (inactive); on Melanocortin receptor 4 it was 7.25 µM (active).
Take `CCN(/N=C/C=C/c1ccccc1)c1cc(=O)n(C)c(=O)[nH]1`: the values for the IC50 in assay [20] and in assay [22] were 13.1 µM (not active) and 155 µM (inactive), respectively. In addition, the EC50 in [21] was > 260 µM (inactive).
For the compound `Sc1nnc(C2CCCCC2)n1/N=C/c1ccccc1Cl`, in assay [22], the IC50 is 155 µM (inactive).
